# Source: patent publication US9359418B2, “Inhibitors of the T cell-specific alternative p38 activation pathway and methods of use” (The United States of America, as represented by the …, priority 2012, dated 2016)
# Tests used:
# Nfatc1 and Irf4 mRNA = Nfatc1 and Irf4 mRNA in spleen T cells after i.v. injection; type: in vivo, mice; details: 50 μg i.v.; total T cells and CD4+ T cells from spleen
# Method: FIG. 8 is a series of graphs showing reduction in expression of Nfatc1 and Irf4 in CD4^+ T cells following injection of (11R)-71-85. WT C57BL/6 mice were injected i.v. with 50 μg of DMSO, (11R)-Scrambled, or (11R)-71-85 and either total T cells or CD4±T cells were purified from spleen at different times. Purified cells were stimulated in vitro with anti-CD3/CD28 for 24 hours and the mRNA levels of the indicated transcription factors were determined by quantitative real-time PCR.
# Expression of NFATc1 and IRF4, two transcription factors activated upon TCR stimulation, was also evaluated after intravenous (i.v.) injection of (11R)-71-85. WT C57BL/6 mice were injected i.v. with 50 μg of DMSO, (11R)-Scrambled, or (11R)-71-85, and either total T cells or CD4±T cells were purified from spleen at different times. Purified cells were stimulated in vitro with anti-CD3/CD28 for 24 hours and the mRNA levels of Nfatc1 and Irf4 were determined by quantitative real-time PCR.
# Irf4 mRNA = Irf4 mRNA in splenocytes after intraperitoneal injection; type: in vivo, mice; details: 40 μg intraperitoneally; splenocytes 4 hours after injection, anti-CD3 plus anti-CD28 24 hours; versus vehicle control
# Method: FIG. 7 is a graph showing expression of interferon regulatory factor 4 (Irf4) mRNA following in vivo treatment with (11R)-71-85. (11R)-71-85 (40 μg) or vehicle control was injected intraperitoneally into wild type mice. Four hours after injection, splenocytes were collected and stimulated with soluble anti-CD3 plus anti-CD28 for 24 hours. Irf4 mRNA expression was assessed by quantitative real time PCR.
# (11R)-71-85 (40 μg) or vehicle control was injected intraperitoneally into wild type mice. Four hours after injection, splenocytes were collected and stimulated with soluble anti-CD3 plus anti-CD28 for 24 hours. Irf4 mRNA expression was assessed by quantitative real time PCR.
# T cells = assay: Inflammatory cytokine production by T cells (flow cytometry); type: cell-based
# Source text: FIGS. 4A-4B are a series flow cytometry plots showing inflammatory cytokine secretion by CD4^+ (FIG. 4A) and CD8^+ (FIG. 4B) T cells. T cells were purified from spleen and stimulated with anti-CD3 plus anti-CD28 for 3 days. Cells were then left unstimulated overnight and treated with the indicated concentrations of (11R)-71-85, control peptide (11R)-Ctrl, or DMSO (no peptide). After treatment, cells were restimulated with either anti-CD3 plus anti-CD28, or PMA plus ionomycin supplemented with monensin. Cytokine expression was measured by flow-cytometry.
# To evaluate cytokine production, T cells were purified from spleen and stimulated with anti-CD3 plus anti-CD28 for 3 days. Cells were then left unstimulated overnight and treated with 1 or 2 μM (11R)-71-85 or control peptide (11R)-Ctrl, or with DMSO only. After treatment, cells were restimulated with either anti-CD3 plus anti-CD28 (to stimulate the TCR and the alternative p38 pathway), or PMA plus ionomycin supplemented with monensin (to stimulate the classical p38 pathway). Cytokine expression was measured by flow-cytometry.
substance,measurement,setting,value
"(11R)-71-85: fusion protein: 11 arginine residues added to the N-terminus of the Gadd45α 71-85 peptide (LQIHFTLIQAFCCEN; N-terminal 11 arginine; UniProt P24522 71-85, looked up, fragment)",Irf4 mRNA expression following TCR stimulation,Nfatc1 and Irf4 mRNA,inhibits
same,Nfatc1 mRNA expression following TCR stimulation,Nfatc1 and Irf4 mRNA,inhibits
same,Irf4 mRNA expression,Irf4 mRNA,significantly inhibited
same,"inhibition of production of TNF-α and IFN-γ, 2 μM compared with 1 μM",T cells; 2 μM versus 1 μM,to a greater extent
same,cytokine production in response to PMA plus ionomycin,"T cells; 1 or 2 μM, restimulated with PMA plus ionomycin",no significant effect
same,production of TNF-α in response to TCR stimulation,"T cells; 1 or 2 μM, restimulated with anti-CD3 plus anti-CD28",inhibits
